Source: patent US20250289812A1, “COMPOUND FOR TREATING THROMBOTIC DISEASES” (SHANGHAI INSTITUTE OF MATERIA MEDICA, CHINESE ACADEMY OF …, priority 2020, published 2025)

How the values were obtained:
[1] = tested on: platelets on solid phase fibrinogen; test: Effect of compound on platelet stretching on solid phase fibrinogen; assay type: cell-based; conditions: 1 h, washed platelets, incubated 60 min at 37° C., read-out: Concentration range for compounds that inhibit platelet stretching on fibrinogen
Procedure: 1. Experimental method: Firstly, 50 μl fibrinogen (0.1M, diluted with pH 8.3 sodium bicarbonate, 20 μg/ml) was added to 96-well plate, and coated overnight at 4° C. After being washed by PBS for 3 times in the morning, sealed with bovine serum albumin (20 mg/ml) at 37° C. for 60 min, then 100 μl of washed platelet suspension was taken, and added into compounds in each group to make the final concentration 250 μM, and incubated at 37° C. for 60 min. 50 μl of incubated platelets were added to 96-well plate, adhered in a temperature box at 37° C. for 60 min, unadhered platelets were removed by PBS washing for 3 times, and adhered platelets were stably fixed with 4% paraformaldehyde, and washed with PBS for 3 times. Then the platelet membrane was perforated with 0.5% Triton X-100, and then the platelet was stained with 0.5 μg/ml phalloidin-rhodamine for 60 min at 37° C. and washed 3 times (10 min each) with PBS.
2. Experimental results and conclusions: The concentration of different compounds on platelet stretching on fibrinogen was shown in Table 3, and the inhibitory effect of some compounds on platelet stretching was shown in FIG. 2.

[2] = target: Src kinase SH3 domain protein (Homo sapiens (Human), UniProt P12931); test: Surface plasmon resonance (SPR) determination of dissociation constants with SH3 protein; assay type: binding; conditions: SH3 protein coupled to CM5 chip
Chain of Src kinase SH3 domain protein (P12931 whole entry, looked up, the tested form may be a part): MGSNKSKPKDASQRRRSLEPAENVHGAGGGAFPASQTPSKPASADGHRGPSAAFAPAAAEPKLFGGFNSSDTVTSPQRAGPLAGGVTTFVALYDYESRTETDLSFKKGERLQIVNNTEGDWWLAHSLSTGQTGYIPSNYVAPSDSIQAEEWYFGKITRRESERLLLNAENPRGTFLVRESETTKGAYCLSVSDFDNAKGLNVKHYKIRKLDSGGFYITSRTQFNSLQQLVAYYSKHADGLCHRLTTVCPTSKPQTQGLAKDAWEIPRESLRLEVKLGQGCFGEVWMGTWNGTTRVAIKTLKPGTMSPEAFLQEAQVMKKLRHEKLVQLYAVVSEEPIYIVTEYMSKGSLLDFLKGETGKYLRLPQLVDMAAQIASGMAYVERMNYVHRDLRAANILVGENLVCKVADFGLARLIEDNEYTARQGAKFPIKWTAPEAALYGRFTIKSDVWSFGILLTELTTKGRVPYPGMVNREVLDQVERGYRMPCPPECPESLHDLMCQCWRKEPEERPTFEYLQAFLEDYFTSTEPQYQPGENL
Procedure: 1. Experimental method: Surface plasmon resonance test was carried out on BIACORE T200 instrument (GE Company). Fresh purified grade Src kinase SH3 domain protein (concentration 2 mg/ml) was diluted to 0.1 mg/ml with 10 mM CH3COONa (pH 4.2) and then SH3 protein was coupled to the CM5 chip by standard amino coupling methods. The compounds of the invention were diluted in a gradient using a buffer solution (20 mM Tris-HCl, PH 8.0, 100 mM NaCl) for 60 seconds and dissociated for 120 seconds at a flow rate of […], respectively. The changes in response values over time were recorded and analyzed by the BIA Evaluation Software (GE Healthcare) program to obtain the dissociation constants KD for the different compounds with SH3 protein.
2. Experimental results and conclusions: The dissociation constants KD of different compounds and SH3 protein were described in Table 2, and the surface plasmon resonance (SPR) experimental results of some compounds were shown in FIG. 1.

Row | SMILES | minimal effective concentration [1] | Kd [2]
1 | CCOC(=O)c1c(CNC(=N)N)n(C)c2ccc(OC)nc12 [SYY-C001] | 10 to 100 µM | < 1000 nM
2 | CCOC(=O)c1c(CNC(=N)N)n(C)c2ncccc12 [SYY-C002] | 100 to 250 µM | 1000 to 10000 nM
3 | CCOC(=O)c1c(CNC(=N)N)n(C)c2ncc(OC)cc12 [SYY-C003] | 10 to 100 µM | < 1000 nM
4 | COc1ccc2c(n1)c(C#N)c(CNC(=N)N)n2C [SYY-C004] | 100 to 250 µM | 1000 to 10000 nM
5 | COc1ccc2c(n1)c(C(N)=O)c(CNC(=N)N)n2C [SYY-C005] | 100 to 250 µM | 1000 to 10000 nM
6 | CCOC(=O)c1c(CNC(=N)N)n(C)c2ccc(O)nc12 [SYY-C006] | 10 to 100 µM | < 1000 nM
7 | CCOC(=O)c1c(CNC(=N)N)n(C)c2ccc(OC3CCCC3)nc12 [SYY-C007] | 10 to 100 µM | < 1000 nM
8 | CCOC(=O)c1c(CNC(=N)N)n(C)c2cc(Br)c(OC3CCCC3)nc12 [SYY-C008] | 100 to 250 µM | 10000 to 100000 nM
9 | CCOC(=O)c1c(CNC(=N)N)n(C)c2ncc(O)cc12 [SYY-C009] | 10 to 100 µM | < 1000 nM
10 | CCOC(=O)c1c(CNC(=N)N)n(C)c2ncc(OC3CCCC3)cc12 [SYY-C010] | 10 to 100 µM | 10000 to 100000 nM
11 | CCOC(=O)c1c(CNC(=N)N)n(C)c2cc(Br)cnc12 [SYY-C014] | 10 to 100 µM | < 1000 nM
12 | CCOC(=O)c1c(CNC(=N)N)n(C)c2cc(Br)ccc12 [SYY-C015] | 10 to 100 µM | < 1000 nM
13 | CCOC(=O)c1c(CNC(=N)N)n(C)c2ccccc12 [SYY-C016] | 10 to 100 µM | 10000 to 100000 nM
14 | CCOC(=O)c1c(CNC(=N)N)n(C)c2ccc(Br)cc12 [SYY-C017] | 10 to 100 µM | < 1000 nM
15 | CCOC(=O)c1c(CNC(=N)N)n(C)c2nc(Cl)ccc12 [SYY-C020] | 100 to 250 µM | 1000 to 10000 nM
16 | CCOC(=O)c1c(CNC(=N)N)n(C)c2cc(Br)ncc12 [SYY-C022] | 100 to 250 µM | 1000 to 10000 nM
17 | CCOC(=O)c1c(CNC(=N)N)n(C)c2cc(-c3ccccc3)ccc12 [SYY-C023] | 10 to 100 µM | 10000 to 100000 nM
18 | CCOC(=O)c1c(CNC(=N)N)n(C)c2cc(C3=CCCC3)ccc12 [SYY-C024] | 10 to 100 µM | < 1000 nM
19 | CCOC(=O)c1c(CNC(=N)N)n(C)c2cc(C3CCCC3)ccc12 [SYY-C025] | 10 to 100 µM | < 1000 nM
20 | CCOC(=O)c1c(CNC(=N)N)n(C)c2cccnc12 [SYY-C026] | 100 to 250 µM | 1000 to 10000 nM
21 | CCOC(=O)c1c(CNC(=N)N)n(C)c2ccc(-c3ccccc3)cc12 [SYY-C028] | 10 to 100 µM | < 1000 nM
22 | CCOC(=O)c1c(CNC(=N)N)n(C)c2c1ccc1ccccc12 [SYY-C029] | 10 to 100 µM | < 1000 nM
23 | CCOC(=O)c1c(CNC(=N)N)n(-c2ccccc2)c2ccccc12 [SYY-C030] | 100 to 250 µM | 10000 to 100000 nM
24 | CCOC(=O)c1c(CSC(=N)N)n(-c2ccccc2)c2ccccc12 [SYY-C031] | 10 to 100 µM | < 1000 nM
25 | CCNC(=N)NCc1c(C(=O)OCC)c2nc(OC)ccc2n1C [SYY-C032] | 10 to 100 µM | < 1000 nM
26 | CCOC(=O)c1c(CNC(=N)N)n(C)c2ccncc12 [SYY-C034] | 100 to 250 µM | 1000 to 10000 nM
27 | CCOC(=O)c1c(CNC(=N)N)n(C)c2cnccc12 [SYY-C035] | 100 to 250 µM | 1000 to 10000 nM

Row | SMILES | minimal effective concentration [1] | Kd [2]
28 | COc1cnc2c(c1)c(C(N)=O)c(CNC(=N)N)n2C [SYY-C036] | 10 to 100 µM | 
29 | CCOC(=O)c1c(CNC(=N)N)n(C)c2ccc(C3=CCCC3)cc12 [SYY-C037] | 100 to 250 µM | 1000 to 10000 nM
30 | CCOC(=O)c1c(CNC(=N)N)n(C)c2ccc(C3CCCC3)cc12 [SYY-C039] | 10 to 100 µM | < 1000 nM
31 | CCOC(=O)c1c(CNC(=N)N)n(C)c2cc(-c3cccc4ccccc34)ccc12 [SYY-C040] | 10 to 100 µM | < 1000 nM
32 | CCOC(=O)c1c(CNC(=N)N)n(C)c2cc(-c3ccc4ccccc4c3)ccc12 [SYY-C041] | 100 to 250 µM | 10000 to 100000 nM
33 | CCOC(=O)c1c(CSC(=N)N)n(C)c2cc(-c3cccc4ccccc34)ccc12 [SYY-C042] | 10 to 100 µM | 1000 to 10000 nM
34 | CCOC(=O)c1c(CSC(=N)N)n(C)c2cc(-c3ccc4ccccc4c3)ccc12 [SYY-C043] | 100 to 250 µM | 1000 to 10000 nM
35 | CCOC(=O)c1c(CSC(=N)N)n(C)c2cc(Cc3ccccc3)ccc12 [SYY-C045] | 10 to 100 µM | < 1000 nM
36 | CCOC(=O)c1c(CNC(=N)N)n(C)c2cc(C3=CCCCCC3)ccc12 [SYY-C046] | 100 to 250 µM | 10000 to 100000 nM
37 | CCOC(=O)c1c(CNC(=N)N)n(C)c2cc(C3CCCCCC3)ccc12 [SYY-C047] | 10 to 100 µM | < 1000 nM
38 | CCOC(=O)c1c(CNC(=N)N)n(C)c2cc(C3=CCCCC3)ccc12 [SYY-C048] | 10 to 100 µM | 10000 to 100000 nM
39 | CCOC(=O)c1c(CNC(=N)N)n(C)c2cc(C3CCCCC3)ccc12 [SYY-C049] | 10 to 100 µM | < 1000 nM
40 | CCOC(=O)c1c(CSC(=N)N)n(C)c2cc(C3CCCCC3)ccc12 [SYY-C050] | 10 to 100 µM | < 1000 nM
41 | CCOC(=O)c1c(CSC(=N)N)n(C)c2cc(C3=CCCCC3)ccc12 [SYY-C051] | 100 to 250 µM | 1000 to 10000 nM
42 | CCOC(=O)c1c(CSC(=N)N)n(C)c2cc(C3=CCCCCC3)ccc12 [SYY-C052] | 100 to 250 µM | 1000 to 10000 nM
43 | CCOC(=O)c1c(CSC(=N)N)n(C)c2cc(C3CCCCCC3)ccc12 [SYY-C053] | 10 to 100 µM | < 1000 nM
44 | CCOC(=O)c1c(CNC(=N)N)n(C)c2cc(OC3CCCC3)ccc12 [SYY-C054] | 10 to 100 µM | < 1000 nM
45 | CCOC(=O)c1c(CSC(=N)N)n(C)c2cc(C3CCCc4ccccc43)ccc12 (stereo not shown) [SYY-C055] | 10 to 100 µM | < 1000 nM
46 | CCOC(=O)c1c(CSC(=N)N)n(C)c2cc(C3CCC(F)(F)CC3)ccc12 [SYY-C056] | 100 to 250 µM | 10000 to 100000 nM
47 | CCOC(=O)c1c(CNC(=N)N)n(C)c2cc(C3CCCc4ccccc43)ccc12 (stereo not shown) [SYY-C057] | 10 to 100 µM | < 1000 nM
48 | CCOC(=O)c1c(CSC(=N)N)n(C)c2cc(OC3CCCC3)ccc12 [SYY-C058] | 100 to 250 µM | 10000 to 100000 nM
49 | CCOC(=O)c1c(CSC(=N)N)n(C)c2cc(Oc3ccccc3)ccc12 [SYY-C059] | 10 to 100 µM | < 1000 nM
50 | CCOC(=O)c1c(CNC(=N)N)n(C)c2cc(C3CCC(F)(F)CC3)ccc12 [SYY-C060] | 10 to 100 µM | < 1000 nM
51 | CCOC(=O)c1c(CSC(=N)N)n(C)c2cc(OC3CCCCC3)ccc12 [SYY-C061] | 10 to 100 µM | 10000 to 100000 nM
52 | CCOC(=O)c1c(CNC(=N)N)n(C)c2cc(C3CC4CCC3C4)ccc12 (stereo not shown) [SYY-C069] | 10 to 100 µM | 
53 | CCOC(=O)c1c(CNC(=N)N)n(C)c2cc(-c3cccc4ccc(F)cc34)ccc12 [SYY-C094] |  | < 1000 nM
